Key:
Oryctolagus cuniculus [1] = species on record: Oryctolagus cuniculus; experiment: In vitro of platelet aggregation of citreated rabbit platelet-rich plasma, induced by arachidonic acid at 200 uM; format: functional
Rattus norvegicus [2] = experiment: Exudate volume was determined after administration at a dose of 100 umol/kg; format: functional
Cavia porcellus = species on record: Cavia porcellus; experiment: In vitro effect of compound on leukotriene-D4 LTD4 (100 nM) induced contraction of isolated guinea pig tracheal strip; format: functional; details: Trachea
Rattus norvegicus [3] = experiment: Percent inhibition of cellular migration by the compound at a dose of 100 umol/kg was evaluated; format: functional
Rattus norvegicus [4] = experiment: Antiinflammatory effect at a dose of 100 umol/kg administered orally in the carrageenan-induced rat pleurisy assay (10e6 Cells/cavity); format: functional
Oryctolagus cuniculus [5] = species on record: Oryctolagus cuniculus; experiment: Compound was tested for platelet aggregation in citreated rabbit platelet-rich plasma induced by arachidonic acid at 200 uM; format: functional
Oryctolagus cuniculus [6] = species on record: Oryctolagus cuniculus; experiment: In vitro of platelet aggregation of citreated rabbit platelet-rich plasma, induced by collagen at 5 µg/mL; value expressed as slope
Rattus norvegicus [7] = experiment: Exudate volume was determined after administration at a dose of 100 umol/kg in the carrageenan-induced rat pleurisy assay; format: functional
Rattus norvegicus [8] = experiment: Percent inhibition of cellular migration by the compound at a dose of 100 umol/kg was evaluated in the carrageenan-induced rat pleurisy assay; format: functional

IC50 (Cavia porcellus) [µM] | IC50 (Oryctolagus cuniculus [5]) [µM] | SMILES | Aggregation (Oryctolagus cuniculus [1]) [%] | Exudate volume (Rattus norvegicus [2]) [mL] | inhibition in vivo at 100 µmol/kg (Rattus norvegicus [3]) [%] | Cell number (Rattus norvegicus [4]) | Aggregation (Oryctolagus cuniculus [6]) | Exudate volume (Rattus norvegicus [7]) [mL] | inhibition in vivo at 100 µmol/kg (Rattus norvegicus [8]) [%]
43.7 | 0.14 | Cc1nn(-c2ccccc2)c2ncc3c(OC(=O)CCCC(=O)O)c(-c4ccc(Cl)cc4)sc3c12 | 0 | 3.05 | 36.2 | 19600000 | 0 |  | 
 |  | Cc1nn(-c2ccccc2)c2ncc3c(OCCCCC(=O)O)c(-c4ccc(Cl)cc4)sc3c12 | 58.9 | 3.22 | 30 | 21.5 | 7.5 |  | 
 |  | Cc1nn(-c2ccccc2)c2ncc3c(OCCCCCC(=O)O)c(-c4ccc(Cl)cc4)sc3c12 | 56.6 | 3.16 | 42 | 17800000 | 5.8 |  | 
 |  | Cc1nn(-c2ccccc2)c2ncc3c(OCc4ccc(CC(=O)O)cc4)c(-c4ccc(Cl)cc4)sc3c12 | 60.5 | 3.1 | 28.7 | 21900000 | 4.7 |  | 
 |  | COc1ccc2c(c1)c(CC(=O)O)c(C)n2C(=O)c1ccc(Cl)cc1 [INDOMETHACIN] | 0 |  |  | 23.3 | 0.4 | 3.21 | 24.1

Reference: ChEMBL document CHEMBL1135840, “Design, synthesis and pharmacological evaluation of novel pyrazolo[3,4-b]thieno[2,3-d]pyridine acid derivatives: a new class of anti-inflammatory and anti-platelet agents” (Bioorg Med Chem Lett, 2002)
